Data published in PubChem BioAssay AID1963848 (Molecular Pharmacology Branch, DTP, NCI, 2024).
“And” between values parts separate entries of the source, which are not always exact repeats. Equal values may be shown once.

Tested on: 379773-124-R-J2-PDC spheroid viability
Test: Anticancer human tumor 379773-124-R-J2-PDC patient-derived endometrial carcinoma cell line growth inhibition [POLQ]
Settings: spheroids with HUVEC and MSC; for viability, T/C: stronger effect = lower value
Protocol: Multicellular complex tumor spheroid response to Polymerase (POL) inhibitors (novobiocin, ART-558, RP6685) in combination with a variety of drugs and investigational agents in selected tumor cell lines
The POL inhibitors (novobiocin, ART-558, and RP6685) were evaluated both individually and in combination with standard of care and investigational anticancer small molecules within a complex spheroid model of solid tumors. . Complex spheroids include a stromal component modeled by human endothelial cells (HUVEC) and fibroblasts modeled by human mesenchymal stem cells (MSCs). The concentration ranges selected for each drug and investigational agent were based upon clinically achievable concentrations if the clinical Cmax of the agent was known.
Compounds. The drugs and investigational agents: novobiocin (NSC847541), ART-558 (NSC835418), RP-6685 (NSC848927), peposertib (NSC802822), ceralasertib (NSC780249), elimusertib (NSC800525), camonsertib (NSC841442), AZD-1390 (NSC803789), olaparib (NSC753686), talazoparib (NSC767125), rucaparib (NSC756644), sotorasib (NSC818433), MRTX-1133 (NSC836407), SN-38 (NSC673596), topotecan (NSC609699), epotoside (NSC141540), doxorubicin (NSC123127), gemcitabine (NSC613327), 5-fluorouracil (NSC19893), paclitaxel (NSC125973), vemurafenib (NSC761431), MSA-2 (NSC828583), SN-011 (NSC837082), adavosertib (NSC754352), prexasertib (NSC758257), carboplatin (NSC241240) and oxaliplatin (NSC266046), were obtained from the National Cancer Institute (NCI) Developmental Therapeutics Program Chemical Repository (21). The FDA-approved anticancer drug set is available from the Developmental Therapeutics Program at https://dtp.cancer.gov/organization/dscb/obtaining/. […] The stock solutions were prepared in dimethyl sulfoxide (DMSO, Sigma-Aldrich, St. Louis, MO, cat. D2650), except for the platinum compounds which were prepared in saline (Quality Biological, Gaithersburg, MD, cat. 114-055-101), at 800-fold the tested concentration and stored at -70 degrees C prior to their use. All drugs and investigational agents were tested over a range starting from a high concentration at or near the clinical Cmax and decreasing in half-log increments. If the clinical Cmax for an agent had not been determined, the highest concentration tested was 10 microM, except for SN-38, which was tested at a high concentration of 1 microM.
Cell Culture. All cells were maintained in an incubator at 37 degrees C and 5% CO2 with 95% humidity. The PDC lines were cultured according to standard operating procedures established by the NCI PDMR (https://pdmr.cancer.gov). Table 3 of the manuscript, lists the cell lines along with the number of the three cell types plated to form the mct-spheroids and media for tumor cell growth. After thawing, all PDC lines, except 997537-175-T-J1-PDC and 415267-285-R-J2-PDC, were cultured in Matrigel-coated flasks prepared with a working solution of 1X Ham's F-12 nutrient mix, without supplementation (Thermo Fisher Scientific, cat. 11765054), 100 U/mL penicillin-streptomycin (Thermo Fisher Scientific, cat. 15140122), and 2.5% Matrigel (Corning Inc., Corning, NY, cat. 354248) for the first three passages. The two PDC lines 997537-175-T-J1-PDC and 415267-285-R-J2-PDC were cultured on uncoated flasks. The 857933-349-R-J2-PDC line was cultured in 6C/Colon 1B media containing advanced DMEM/F-12 (Thermo Fisher Scientific, cat. 12634028), 10 mM HEPES (Thermo Fisher Scientific, cat. 15630080), 1X GlutaMAX supplement (Thermo Fisher Scientific, cat. 35050061), 0.1 mg/mL primocin (InvivoGen, San Diego, CA, cat. ant-pm-2), 10% defined fetal bovine serum, heat inactivated (HyClone Laboratories Inc., Logan, UT, cat. SH30070.03HI), 50% L-WRN conditioned media (ATCC, cat. CRL-3276), 1.25 mM N-Acetyl-L-cysteine (Sigma-Aldrich, cat. A9165), 10 mM nicotinamide (Sigma-Aldrich, cat. N0636), 1X B-27 supplement (Thermo Fisher Scientific, cat. 17504044), 1X N-2 supplement (Thermo Fisher Scientific, cat. […]

[1] = compound alone, run of 11/06/2023
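Further: spheroids exposed to drugs for seven days before readout.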
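Wherever viability, T/C is given: percent viability relative to DMSO vehicle control taken as 100%.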

| IC50 (compound alone, run of 10/31/2023) [nM] | IC50 [1] [nM] | SMILES | viability, T/C (compound 0.00316 µM) | viability, T/C (compound 0.01 µM) | viability, T/C (compound 0.0316 µM) | viability, T/C (compound 0.1 µM) | viability, T/C (compound 0.316 µM) | viability, T/C (compound 1 µM) | IC50 (curve of compound) | viability, T/C (compound 3.16 µM) | viability, T/C (compound 10 µM) | viability, T/C (compound 0.000316 µM) | viability, T/C (compound 0.001 µM) |
| --- | --- | --- | --- | --- | --- | --- | --- | --- | --- | --- | --- | --- | --- |
|  |  | COc1cccc(OCCCN)c1-c1cc(Nc2cnc(C#N)cn2)n[nH]1 | 71.1% and 84.4% and 94.5% | 4.45% and 22.9% and 22% | 2.75% and 2.85% and 3% | 2.5% and 2.23% and 2.01% | 2.05% and 2.52% and 2.6% | 1.38% and 1.84% and 2.29% | 4.55 nM and 6.02 nM and 6.41 nM |  |  |  |  |
|  |  | COc1cccc2c1C(=O)c1c(O)c3c(c(O)c1C2=O)CC(O)(C(=O)CO)CC3OC1CC(N)C(O)C(C)O1 (configuration not stated) |  |  | 78.1% and 95.3% and 81.8% | 25% and 40.3% and 29.4% | 7.16% and 12.4% and 5.32% | 7.82% and 10.6% and 5.98% | 58.1 nM and 80.7 nM and 63.6 nM | 1.99% and 2.49% and 0.93% | 0.82% and 0.3% and 0.62% |  |  |
| > 10000 | > 10000 | Cc1cccc(N(C)C(=O)C2C(O)CCN2c2nc(C)cc(C(F)(F)F)c2C#N)c1 (configuration not stated) |  |  | 89.8% [middle of 13 runs] | 90.7% [middle of 13 runs] | 88.2% [middle of 13 runs] | 88.2% [middle of 13 runs] |  | 89% [middle of 13 runs] | 92.7% [middle of 13 runs] |  |  |
|  |  | Cn1ncnc1[C@H]1c2n[nH]c(=O)c3cc(F)cc(c23)N[C@@H]1c1ccc(F)cc1 | 95.8% and 99.7% and 71.6% | 80.2% and 93.1% and 88.5% | 69.2% and 76.9% and 80.9% | 51.7% and 51.5% and 63.7% |  |  | > 100 nM |  |  | 87.2% and 92.3% and 89.2% | 84% and 90% and 91.3% |
|  | > 10000 | Nc1ccc(C#CCN(C(=O)Cc2ncc(C(F)(F)F)cc2C(F)(F)F)c2ccc(F)cc2)nn1 |  |  | 91.8% [middle of 13 runs] | 92.8% [middle of 13 runs] | 93.2% [middle of 13 runs] | 91.9% [middle of 13 runs] |  | 94.9% [middle of 12 runs] | 91.4% [middle of 13 runs] |  |  |
|  |  | Nc1ccn(C2OC(CO)C(O)C2(F)F)c(=O)n1 (configuration not stated) |  |  | 25.4% and 19.1% and 15.5% | 8.86% and 11.2% and 9% | 8.47% and 12.9% and 7.5% | 10.6% and 10.1% and 9.75% | < 31.6 nM | 10.8% and 13.3% and 10.3% | 7.47% and 10.7% and 7.2% |  |  |
|  |  | O=C(c1cc(Cc2n[nH]c(=O)c3ccccc23)ccc1F)N1CCN(C(=O)C2CC2)CC1 |  |  | 90.8% and 82.3% and 93.3% | 87% and 88.1% and 91.8% | 74.1% and 91.5% and 88.4% | 75.1% and 96.4% and 97.2% | 8480 nM and 7080 nM and > 10000 nM | 86.8% and 84.9% and 86.2% | 44.5% and 34.6% and 49.8% |  |  |
|  |  | O=c1[nH]cc(F)c(=O)[nH]1 |  |  | 99.4% and 89.8% and 84.2% | 81.4% and 94.1% and 74.5% | 87.7% and 83.8% and 83.7% | 93.3% and 88.7% and 90.6% | > 10000 nM | 80.8% (2×) and 87.2% | 54.3% and 51.3% and 50.9% |  |  |
